Source: ChEMBL document CHEMBL1125026, “Synthesis and estrogen receptor binding of novel 11 beta-substituted estra-1,3,5(10)-triene-3,17 beta-diols” (J Med Chem, 1990)

Target: Estrogen receptor (Rattus norvegicus) (UniProt P06211+Q62986)
Assay: Relative binding affinity for rat uterine estrogen receptor at 25 degree C
Type: protein assay

C[C@]12CC[C@@H]3c4ccc(O)cc4CC[C@H]3[C@@H]1C[C@@H](F)[C@@H]2O was tested, and the RBA was 60.
